Test results published in patent US20090082398A1 (Teva Pharmaceutical Industries Ltd., priority 2004, published 2009).
Structures can show the parent of a compound that is named as a salt.

Experiments:
Format in all cases: physicochemical
[1] = Microscope observation of particle morphology; conditions: hydrochloride
Text: The morphology of an active pharmaceutical substance plays an important role in drug performance, and has a profound impact on handling during milling processes and during drug product manufacturing. […].

[2] = Exposure in controlled humidity cells, 7 days at room temperature, tested by XRD and KF titration; set-up: Water content: unit not given here; conditions: for Water content: KF titration
Experimental: 200 mg of Fexofenadine HCl Form XVI was spread as a thin layer on an open dish, and then put in controlled humidity cells of 0, 20, 40, 60 and 80% RH for 7 days at room temperature. The samples were tested by XRD and by KF titration.

[3] = Heating under atmospheric pressure, then tested by XRD; conditions: 10 h
[4] = Exposure of Form XX in controlled humidity cells, 9 days at 30 C, tested by XRD

Water content ([2]; 0% RH)	Water content ([2]; 20% RH)	Crystal Form content by XRD ([2]; 20% RH, hydrochloride)	Water content ([2]; 40% RH)	Crystal Form content by XRD ([2]; 40% RH, hydrochloride)	Water content ([2]; 60% RH)	Crystal Form content by XRD ([2]; 60% RH, hydrochloride)	Crystal Form content by XRD ([2]; 80% RH)	Water content ([2]; 80% RH)	Compound	Crystal Form content by XRD ([2]; 0% RH, hydrochloride)	also measured
									CC(C)(C(=O)O)c1ccc(C(O)CCCN2CCC(C(O)(c3ccccc3)c3ccccc3)CC2)cc1 (centres unmarked) [Fexofenadine HCl form I, fexofenadine hydrochloride, reference compound]		Particle morphology ([1]; listed as fexofenadine HCl form I): needles morphology
4.2	7.0	93% XVI, 7% Form XX	7.3	96% XVI, 4% Form XX	7.3	96% XVI, 4% Form XX	XVI	8.3	CC(C)(C(=O)O)c1ccc(C(O)CCCN2CCC(C(O)(c3ccccc3)c3ccccc3)CC2)cc1 (centres unmarked) [mixture of Fexofenadine HCl Form XVI and Fexofenadine HCl Fo] [fexofenadine hydrochloride]	85% XVI, 15% Form XX	
4.2	7.0	XVI	7.3	XVI	7.3	XVI	XVI	8.3	CC(C)(C(=O)O)c1ccc(C(O)CCCN2CCC(C(O)(c3ccccc3)c3ccccc3)CC2)cc1 (centres unmarked) [Fexofenadine HCl Form XVI, fexofenadine hydrochloride]	mixture of Fexofenadine HCl Form XVI and Fexofenadine HCl Form XX	Resulted Form ([3]; 65 C.): XVI; Resulted Form ([3]; 80 C.): XVI + Amorphous; Resulted Form ([3]; 100 C., hydrochloride): mixture of Fexofenadine HCl Form XVI and amorphous Form; Resulted Form ([3]; 100 C., listed as XVI, hydrochloride): XVI + Amorphous
									CC(C)(C(=O)O)c1ccc(C(O)CCCN2CCC(C(O)(c3ccccc3)c3ccccc3)CC2)cc1 (centres unmarked) [Fexofenadine HCl Form XX, fexofenadine hydrochloride]		Particle morphology ([1]; listed as fexofenadine HCl form XX): small rod shape particles; Crystal Form content by XRD ([4]; 40% RH): XVI + XX; Water content ([4]; 40% RH): 4.9; Crystal Form content by XRD ([4]; 60% RH): XVI + XX; Water content ([4]; 60% RH): 5.2; Crystal Form content by XRD ([4]; 80% RH): XVI; Water content ([4]; 80% RH): 7.8
